For one data set, the system named is Hepatitis B Virus (HBV). The data set is described as follows: Anti-HBV activity in HBV producer cell line HepG2 2.2.15: reduction of extracellular virion DNA and intracellular replicative intermediates. Format: cell-based. As for the experimental part:
The human HBV producer cell line of HepG2, 2.2.15, described and characterized by Sells et al., PNAS 84:1005, 1987 and J. Virol. […] This cell line was utilized in vitro to identify compounds with anti-HBV activity.
Monolayer cultures were treated with 1-100µM of the active compound 1-(β-D-arabinofuranosyl)-5-prop-1-ynyluracil, for ten days. Supernatant media containing extracellular virion DNA (Dane particles) were harvested on day ten, treated with proteinase K (1 mg/mL) and sodium dodecyl sulfate (1%), and incubated at 50°C for one hour. DNA was extracted with equal volumes of phenol followed by chloroform and then precipitated by ammonium acetate and propanol. The DNA precipitate was dissolved and collected on nitrocellulose using the procedure of Schleicher and Schuell (S & S, 10 Optical Ave., Keene, NH 03431, Publication #700, 1987), and treated as described by Southern, J. Mol. Biol. 98:503, 1975. Cells were harvested, and the intracellular DNA. was obtained after cell lysis with guanidine isothiocyanate. The intracellular DNA was handled in the same manner as the extracellular DNA. After precipitation by ammonium acetate and propanol, the intracellular DNA precipitate was dissolved, cut by restriction endonuclease, Hind III, applied to agarose gel and then treated as described by Southern to determine the quantity of replicative intermediate forms. The antiviral effect of the drug was determined by measuring a reduction of the amount of Dane particles extruded into the culture medium (extracellular DNA) and a similar decrease in tie intracellular replicative intermediates (intracellular replicative form).

Data set [1] in a line: Cell toxicity, cell growth inhibition assay (MTT uptake). The conditions noted are these: monkey, Vero cells, 50% inhibition of cell viability at 96 hours, read-out: cell toxicity (CCID₅₀). The class given is cell-based. Here is the method: Cell toxicity is assessed in a cell growth inhibition assay. Subconfluent cultures of Vero cells grown on 96-well microtiter dishes are exposed to different dilutions of drug, and cell viability determined daily on replicate cultures using uptake of a tetrazolium dye (MTT). The concentration requried for a 50% inhibition of cell viability at 96 hours is termed CCID₅₀.

The mark [2] stands for this setting: HepG2 2.2.15, 240 h, Expt. 5, HepG2 2.2.15 cells, ten days, read-out: Percent (Reduction) Inhibition of Hepatitus B Virus DNA in Extracellular Media.
Setting [3] is: HepG2 2.2.15, 240 h, Expt. 6, HepG2 2.2.15 cells, ten days, read-out: Percent (Reduction) Inhibition of Hepatitus B Virus DNA in Extracellular Media.

Data on one compound can be found in patent EP0461815A1, “Anti-HBV pyrimidine nucleoside” (THE WELLCOME FOUNDATION LIMITED, priority 1990, dated 1991).

SMILES strings stand for the structures. Where two headings read alike, the source gives them in different places.

On to `CC#Cc1cn([C@@H]2O[C@H](CO)[C@@H](O)[C@@H]2O)c(=O)[nH]c1=O` [1-(β-D-Arabinofuranosyl)-5-prop-1-ynyluracil], for which the “Percent (Reduction) Inhibition of Hepatitus B Virus DNA in Extracellular Media” value in the data set on Hepatitis B Virus (HBV) (Expt. 5, 11μM, HepG2 2.2.15 cells, ten days) was “N.I”; with Hepatitis B Virus (HBV) (Expt. 6, 37μM, HepG2 2.2.15 cells, ten days), “N.I”. Further, the inhibition at 33 µM in the data set on Hepatitis B Virus (HBV) (setting [2]) was 87.4%; in the data set on Hepatitis B Virus (HBV) (setting [3]), 89.1%. For the same compound, the inhibition at 37 µM in the data set with Hepatitis B Virus (HBV) (HepG2 2.2.15, 240 h, Expt. 5, 37μM, HepG2 2.2.15 cells, ten days, read-out: Percent (Reduction) Inhibition of Hepatitus B Virus DNA in Extracellular Media) was 55.3%. The inhibition at 100 µM in the data set with Hepatitis B Virus (HBV) (setting [2]) was 94.4%; in the data set with Hepatitis B Virus (HBV) (setting [3]), 98.5%; in the data set on Hepatitis B Virus (HBV) (Hepatitis B virus, HepG2 2.2.15, 240 h, Expt. 5, value in parentheses, read-out: % reduction in intracellular hepatitis B virus DNA replicative form), 88%; in the data set on Hepatitis B Virus (HBV) (Hepatitis B virus, HepG2 2.2.15, 240 h, Expt. 6, value in parentheses, read-out: % reduction in intracellular hepatitis B virus DNA replicative form) it was 95.3%; with Hepatitis B Virus (HBV) (Hepatitis B virus, HepG2 2.2.15, Expt.7, read-out: Percent Inhibition of Hepatitis B Specific Intracellular Replicative Form (RF) DNA), 42%. Moreover, the inhibition at 11 µM with Hepatitis B Virus (HBV) (HepG2 2.2.15, 240 h, Expt. 6, 11μM, HepG2 2.2.15 cells, ten days, read-out: Percent (Reduction) Inhibition of Hepatitus B Virus DNA in Extracellular Media) was found to be 71.5%. For the same compound, in the data set on Hepatitis B Virus (HBV) (Hepatitis B virus, HepG2 2.2.15, Expt.7, 1μM, read-out: Percent Inhibition of Hepatitis B Specific Intracellular Replicative Form (RF) DNA), the inhibition at 1 µM turned out to be 35%. Besides, the inhibition at 10 µM with Hepatitis B Virus (HBV) (Hepatitis B virus, HepG2 2.2.15, Expt.7, 10μM, read-out: Percent Inhibition of Hepatitis B Specific Intracellular Replicative Form (RF) DNA) is 33%. Further, the CC50 at 96 h in data set [1] is > 500 µM.
